In this test the target is T1, human S1P1 receptor (Homo sapiens, UniProt P21453).
T1 construct: expressed in transfected cells; membrane preparation
T1 sequence (P21453 whole entry): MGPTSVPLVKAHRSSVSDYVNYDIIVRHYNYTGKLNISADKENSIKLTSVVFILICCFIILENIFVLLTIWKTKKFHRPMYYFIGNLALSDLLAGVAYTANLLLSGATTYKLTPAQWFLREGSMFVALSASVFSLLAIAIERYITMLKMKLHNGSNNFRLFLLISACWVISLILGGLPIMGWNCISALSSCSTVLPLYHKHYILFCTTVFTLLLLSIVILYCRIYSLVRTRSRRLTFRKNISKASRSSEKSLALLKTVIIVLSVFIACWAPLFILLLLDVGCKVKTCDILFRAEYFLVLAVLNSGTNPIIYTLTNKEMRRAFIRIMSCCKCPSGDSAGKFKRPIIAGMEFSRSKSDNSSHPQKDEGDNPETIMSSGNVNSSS
In words: GTP γ35S binding assay for S1P1 activity. It is filed as biochemical. As to conditions: membranes of cells stably expressing the S1P1 receptor, test compounds 0.08 to 5,000 nM. As for the experimental part: Compounds were synthesized and tested for S1P1 activity using the GTP γ^35S binding assay. These compounds may be assessed for their ability to activate or block activation of the human S1P1 receptor in cells stably expressing the S1P1 receptor.
GTP γ^35S binding was measured in the medium containing (mM) HEPES 25, pH 7.4, MgCl2 10, NaCl 100, dithiothreitol 0.5, digitonin 0.003%, 0.2 nM GTP γ^35S, and 5 μg membrane protein in a volume of 150 μl. Test compounds were included in the concentration range from 0.08 to 5,000 nM unless indicated otherwise. Membranes were incubated with 100 μM 5′-adenylylimidodiphosphate for 30 min, and subsequently with 10 μM GDP for 10 min on ice. Drug solutions and membrane were mixed, and then reactions were initiated by adding GTP γ^35S and continued for 30 min at 25° C. Reaction mixtures were filtered over Whatman GF/B filters under vacuum, and washed three times with 3 mL of ice-cold buffer (HEPES 25, pH7.4, MgCl2 10 and NaCl 100). Filters were dried and mixed with scintillant, and counted for ^35S activity using a β-counter. Agonist-induced GTP γ^35S binding was obtained by subtracting that in the absence of agonist. Binding data were analyzed using a non-linear regression method. In case of antagonist assay, the reaction mixture contained 10 nM […] in the presence of test antagonist at concentrations ranging from 0.08 to 5000 nM.
On the technique in general: Binding of GTPγS marks nucleotide exchange on a G protein.
For the compound `Cc1ccc(CC(CCCc2ccc(CNCCC(=O)O)cc2)c2cccc(Cl)c2)cc1C` (stereo not drawn) [3-({4-[4-(3-Chlorophenyl)-5-(3,4-dimethylphenyl)pentyl]benzyl}amino)propanoic acid], the EC50 (in general, the midpoint of the concentration-response curve) was 142 nM.

In turn, `Cc1ccc(CC(CCCCc2ccc(CNCCC(=O)O)cc2)c2cc(F)cc(F)c2)cc1C` (stereo not drawn) [3-({4-[5-(3,5-Difluorophenyl)-6-(3,4)-dimethylphenyl)hexyl]benzyl}amino)propanoic acid] came in with an EC50 of 6.79 nM.

For `Cc1ccc(CC(CCCCc2ccc(CNCCC(=O)O)cc2)c2cccc(Cl)c2)cc1C` (stereo not drawn) [3-({4-[5-(3-Chlorophenyl)-6-(3,4-dimethylphenyl)hexyl]benzyl}amino)propanoic acid], the EC50 is 20.1 nM. The compound `Cc1ccc(CC(CCCc2ccc(CNCCCP(=O)(O)O)cc2)c2cccc(Cl)c2)cc1C` (stereo not drawn) [[3-({4-[4-(3-Chlorophenyl)-5-(3,4-dimethylphenyl)pentyl]benzyl}amino)propyl]phosphonic acid] had an EC50 of 3.09 nM. This EC50 is about 6.5-fold lower than that of the compound before. To `Cc1ccc(CC(CCCCc2ccc(CNCCCP(=O)(O)O)cc2)c2cc(F)cc(F)c2)cc1C` (stereo not drawn) [[3-({4-[5-(3,5-Difluorophenyl)-6-(3,4-dimethylphenyl)hexyl]benzyl}amino)propyl]phosphonic acid] belongs 5.09 nM; to `Cc1ccc(CC(CCCCc2ccc(CNCCCP(=O)(O)O)cc2)c2cccc(Cl)c2)cc1C` (stereo not drawn) [[3-({4-[5-(3-Chlorophenyl)-6-(3,4-dimethylphenyl)hexyl]benzyl}amino)propyl]phosphonic acid], 3.72 nM.

(Values after patent US20150057253A1, “ALKYL DERIVATIVES AS SPHINGOSINE-1 PHOSPHATE RECEPTORS MODULATORS” (Allergan, Inc., priority 2013, published 2015).)
